This note sets out measurements from paper PMC12344696, “Elucidation of the Synergistic Interaction Between Bilirubin and Casein Protein: An Integrated Spectroscopy and Computational Approach” (Biomacromolecules, 2025).

In the test the target is T1, casein (CAS) protein; CAS micelles.
T1 construct: gene CSN1S1; whole casein mixture (alpha, beta, kappa), self-assembled micelles above CMC
Put plainly: UV-vis absorption titration of BIL with casein, Hill1 fit. The note with it: phosphate buffer pH 7.3, 298 K; casein mixture 0.05-3 mg/mL across the CMC; converted from a mg/mL fit with average casein mass 22,500 Da; read-out: binding constant (converted).

With `C=CC1=C(C)/C(=C/c2[nH]c(Cc3[nH]c(/C=C4\NC(=O)C(C)=C4C=C)c(C)c3CCC(=O)O)c(CCC(=O)O)c2C)NC1=O` [BIL, bilirubin], the Kd was 33.3 µM.
